Test results from patent publication US20260327221A1, “INHIBITORS OF CYCLIC GMP-AMP SYNTHASE AND USES THEREOF” (Ventus Therapeutics U.S., Inc., priority 2023, published 2026).
Like-named read-outs stand apart in the source and are kept apart here.

Molecular target: hcGAS (Homo sapiens, UniProt Q8N884)
Assay: hcGAS LCMS assay (direct measurement of cGAMP production by LC/MS)
Type: biochemical
Description: cGAS catalyzes the cyclization of ATP and GTP to produce cGAMP, which is the activating ligand of STING. Human cGAS (hcGAS) inhibition can thus be quantified by measuring how much cGAMP is formed either indirectly, by monitoring ATP-depletion as in the hcGAS Kinase-Glo assay (as described below), or directly, such as using the hcGAS LCMS assay (as described below).
2. hGAS LCMS Assay Conditions
Compounds were tested for their hcGAS inhibition activity using direct measurement of cGAMP production by LC/MS. Briefly, compounds were incubated with enzyme and substrates for 4 hours (see Table C), before the reaction was stopped with 3 volumes of 70/30 Acetonitrile/H2O mix containing 0.15 uM cGAMP-^13C10^15N5 as internal standard and mixed for 5 mmn. After centrifugation (3700 rpm, […], […]), 100 uL of each reaction was collected and mixed to equal volume of acetonitrile (MeCN). Samples were then analyzed on Qexactive (Column: XBridge BEH Amide Column, 130 Å, 3.5 μm, 3 mm×50 mm. Mobile phase A: 10 mM Ammonium acetate in 95/5 H2O/MeCN (0.5% DMSO), Mobile phase B: MeCN (0.5% DMSO).
The results of the assay, expressed as IC50 values, are reported in Table D with the following designations: A represents an IC50 value <0.005 μM (with A1 representing an IC50 value <0.0005 μM, A2 representing an IC50 value ≥0.0005 μM and <0.001 μM, and A3 representing an IC50 value ≥0.001 μM and <0.005 μM); B represents an IC50 value ≥0.005 μM and <0.02 μM; C represents an IC50 value ≥0.02 μM and <0.06 μM; and D represents an IC50 value ≥0.06 μM.

[1] = 4 h incubation with enzyme and substrates, cGAMP production by LC/MS, class symbols, read-out: hcGAS LCMS IC50

Sequence of hcGAS (Q8N884 whole entry): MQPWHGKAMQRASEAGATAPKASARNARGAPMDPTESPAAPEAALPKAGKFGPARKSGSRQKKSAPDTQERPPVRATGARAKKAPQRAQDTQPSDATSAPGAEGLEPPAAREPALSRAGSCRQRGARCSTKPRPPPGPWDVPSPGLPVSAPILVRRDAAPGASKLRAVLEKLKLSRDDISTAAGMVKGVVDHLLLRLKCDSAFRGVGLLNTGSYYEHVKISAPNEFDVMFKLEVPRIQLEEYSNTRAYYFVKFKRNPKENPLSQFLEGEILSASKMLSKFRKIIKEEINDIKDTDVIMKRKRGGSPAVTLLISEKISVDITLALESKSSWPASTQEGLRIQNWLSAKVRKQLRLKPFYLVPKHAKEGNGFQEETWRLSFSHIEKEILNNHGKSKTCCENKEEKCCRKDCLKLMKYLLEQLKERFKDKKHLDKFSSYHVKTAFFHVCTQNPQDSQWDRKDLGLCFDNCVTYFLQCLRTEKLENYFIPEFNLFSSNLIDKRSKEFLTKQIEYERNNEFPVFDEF

Row | SMILES | IC50 [1] [nM] | IC50 (hcGAS 0.5 nM, ATP 100 μM, GTP 100 μM, dsDNA 25 nM, pH 7.4, 4 h incubation, read-out: hcGAS inhibition IC50 (activity class, Table D)) [nM]
1 | COc1cccc(OC)c1-c1cc(C(=O)Nc2nnc(-n3nccc3N)s2)oc(=O)c1OCC(CO)N1CCOCC1 (racemic) [Rac-85, N-(5-(5-amino-1H-pyrazol-1-yl)-1,3,4-thiadiazol-2-yl)-4-(2,6-dimethoxyphenyl)-3-(3-hydroxy-2-morpholinopropoxy)-2-oxo-2H-pyran-6-carboxamide] | 1 to 5 | –
2 | COc1cccc(OC)c1-c1cc(C(=O)Nc2nnc(-n3nccc3N)s2)oc(=O)c1OC(CO)CN1CCOCC1 (racemic) [Rac-87, N-(5-(5-amino-1H-pyrazol-1-yl)-1,3,4-thiadiazol-2-yl)-4-(2,6-dimethoxyphenyl)-3-((1-hydroxy-3-morpholinopropan-2-yl)oxy)-2-oxo-2H-pyran-6-carboxamide] | 1 to 5 | –
3 | COc1cccc(OC)c1-c1cc(C(=O)Nc2nnc(-n3nccc3N)s2)oc(=O)c1O[C@@H]1CCC[C@@H](O)C1 (single isomer, unassigned) [109A*] | 1 to 5 | –
4 | COc1cccc(OC)c1-c1cc(C(=O)Nc2nnc(-n3nccc3N)s2)oc(=O)c1O[C@@H]1CCCC[C@H]1O (single isomer, unassigned) [110A*] | 1 to 5 | –
5 | COc1cccc(OC)c1-c1cc(C(=O)Nc2nnc(-n3nccc3N)s2)oc(=O)c1O[C@H]1CCCC[C@@H]1O (single isomer, unassigned) [110B*] | 0.5 to 1 | –
6 | COc1cccnc1-c1cc(C(=O)Nc2nnc(-n3nccc3N)s2)oc(=O)c1O[C@@H]1CC[C@H](O)C1 (single isomer, unassigned) [111A*] | 0.5 to 1 | –
7 | COc1cccnc1-c1cc(C(=O)Nc2nnc(-n3nccc3N)s2)oc(=O)c1O[C@H]1CC[C@@H](O)C1 (single isomer, unassigned) [111B*] | 0.5 to 1 | –
8 | COc1cccnc1-c1cc(C(=O)Nc2nnc(-n3nccc3N)s2)oc(=O)c1O[C@@H]1CC[C@@H](O)C1 (single isomer, unassigned) [112A*] | 1 to 5 | –
9 | COc1cccnc1-c1cc(C(=O)Nc2nnc(-n3nccc3N)s2)oc(=O)c1O[C@H]1CC[C@H](O)C1 (single isomer, unassigned) [112B*] | 1 to 5 | –
10 | COc1cccnc1-c1cc(C(=O)Nc2nnc(-n3nccc3N)s2)oc(=O)c1O[C@@H]1CCC[C@@H](OC)C1 (single isomer, unassigned) [113A*] | 1 to 5 | –
11 | COc1cccnc1-c1cc(C(=O)Nc2nnc(-n3nccc3N)s2)oc(=O)c1O[C@H]1CCC[C@H](OC)C1 (single isomer, unassigned) [113B*] | 0.5 to 1 | –
12 | COc1cccnc1-c1cc(C(=O)Nc2nnc(-n3nccc3N)s2)oc(=O)c1O[C@H]1CCC[C@@H](OC)C1 (single isomer, unassigned) [113C*] | ≥ 60 | –
13 | COc1cccnc1-c1cc(C(=O)Nc2nnc(-n3nccc3N)s2)oc(=O)c1O[C@@H]1CCC[C@H](OC)C1 (single isomer, unassigned) [113D*] | 5 to 20 | –
14 | COc1cccc(OC)c1-c1cc(C(=O)Nc2nnc(-n3nccc3N)s2)oc(=O)c1OC[C@@H]1COCCO1 (single isomer, unassigned) [Compound 43A*] | 0.5 to 1 | –
15 | COc1cccc(OC)c1-c1cc(C(=O)Nc2nnc(-n3nccc3N)s2)oc(=O)c1OC[C@H]1COCCO1 (single isomer, unassigned) [Compound 43B] | 0.5 to 1 | –
16 | COc1cccc(OC)c1-c1cc(C(=O)Nc2nnc(-n3nccc3N)s2)oc(=O)c1O[C@@H](C)CO (single isomer, unassigned) [Compound 55A*] | 0.5 to 1 | –
17 | COc1cccc(OC)c1-c1cc(C(=O)Nc2nnc(-n3nccc3N)s2)oc(=O)c1O[C@H](C)CO (single isomer, unassigned) [Compound 55B*] | 0.5 to 1 | –
18 | COc1cccc(OC)c1-c1cc(C(=O)Nc2nnc(-n3nccc3N)s2)oc(=O)c1OC1CC(O)C1 (single isomer, unassigned) [Compound 57A, N-(5-(5-amino-1H-pyrazol-1-yl)-1,3,4-thiadiazol-2-yl)-4-(2,6-dimethoxyphenyl)-3-((1,3-trans)-3-hydroxycyclobutoxy)-2-oxo-2H-pyran-6-carboxamide] | 0.5 to 1 | –
19 | COc1cccc(OC)c1-c1cc(C(=O)Nc2nnc(-n3nccc3N)s2)oc(=O)c1OC1CC(O)C1 (single isomer, unassigned) [Compound 57B, N-(5-(5-amino-1H-pyrazol-1-yl)-1,3,4-thiadiazol-2-yl)-4-(2,6-dimethoxyphenyl)-3-((1,3-cis)-3-hydroxycyclobutoxy)-2-oxo-2H-pyran-6-carboxamide] | < 0.5 | –
20 | COC[C@@H](O)COc1c(-c2c(OC)cccc2OC)cc(C(=O)Nc2nnc(-n3nccc3N)s2)oc1=O (single isomer, unassigned) [Compound 63B*] | 0.5 to 1 | –
21 | COc1cccc(OC)c1-c1cc(C(=O)Nc2nnc(-n3nccc3N)s2)oc(=O)c1OC[C@H](CO)OC [38A*, (S)-N-(5-(5-amino-1H-pyrazol-1-yl)-1,3,4-thiadiazol-2-yl)-4-(2,6-dimethoxyphenyl)-3-(3-hydroxy-2-methoxypropoxy)-2-oxo-2H-pyran-6-carboxamide] | 0.5 to 1 | –
22 | COc1cccc(OC)c1-c1cc(C(=O)Nc2nnc(-n3nccc3N)s2)oc(=O)c1OC[C@@H](CO)OC [38B*, (R)-N-(5-(5-amino-1H-pyrazol-1-yl)-1,3,4-thiadiazol-2-yl)-4-(2,6-dimethoxyphenyl)-3-(3-hydroxy-2-methoxypropoxy)-2-oxo-2H-pyran-6-carboxamide] | 0.5 to 1 | –
23 | COc1cccc(OC)c1-c1cc(C(=O)Nc2nnc(-n3nccc3N)s2)oc(=O)c1O[C@@H]1CCOC1 [52B*, (R)-N-(5-(5-amino-1H-pyrazol-1-yl)-1,3,4-thiadiazol-2-yl)-4-(2,6-dimethoxyphenyl)-2-oxo-3-((tetrahydrofuran-3-yl)oxy)-2H-pyran-6-carboxamide] | 0.5 to 1 | –

More lines, now with the values ahead:

Row | IC50 [1] [nM] | IC50 (hcGAS 0.5 nM, ATP 100 μM, GTP 100 μM, dsDNA 25 nM, pH 7.4, 4 h incubation, read-out: hcGAS inhibition IC50 (activity class, Table D)) [nM] | SMILES
24 | 0.5 to 1 | – | COc1cccc(OC)c1-c1cc(C(=O)Nc2nnc(-n3nccc3N)s2)oc(=O)c1O[C@@H]1CC[C@@H](O)C1 (relative stereo) [64A*/B*]
25 | 0.5 to 1 | – | COc1cccc(OC)c1-c1cc(C(=O)Nc2nnc(-n3nccc3N)s2)oc(=O)c1O[C@@H]1CC[C@H](O)C1 (relative stereo) [64C*/D*]
26 | 0.5 to 1 | – | COc1cccc(OC)c1-c1cc(C(=O)Nc2nnc(-n3nccc3N)s2)oc(=O)c1O[C@H]1CCC[C@@H]1O (single isomer, unassigned) [71A*]
27 | 0.5 to 1 | – | COc1cccc(OC)c1-c1cc(C(=O)Nc2nnc(-n3nccc3N)s2)oc(=O)c1O[C@@H]1CCC[C@H]1O (single isomer, unassigned) [71B*]
28 | 0.5 to 1 | – | COc1cccc(OC)c1-c1cc(C(=O)Nc2nnc(-n3nccc3N)s2)oc(=O)c1O[C@H]1CCC[C@H](O)C1 (single isomer, unassigned) [109B*]
29 | < 0.5 | – | COCCOc1c(-c2c(Cl)cccc2OC)cc(C(=O)Nc2nnc(-n3nccc3N)s2)oc1=O (single isomer, unassigned) [Compound 15A*, (Ra)—N-(5-(5-amino-1H-pyrazol-1-yl)-1,3,4-thiadiazol-2-yl)-4-(2-chloro-6-methoxyphenyl)-3-(2-methoxyethoxy)-2-oxo-2H-pyran-6-carboxamide]
30 | < 0.5 | – | COCCOc1c(-c2c(Cl)cccc2OC)cc(C(=O)Nc2nnc(-n3nccc3N)s2)oc1=O (single isomer, unassigned) [Compound 15B*, (Sa)-N-(5-(5-amino-1H-pyrazol-1-yl)-1,3,4-thiadiazol-2-yl)-4-(2-chloro-6-methoxyphenyl)-3-(2-methoxyethoxy)-2-oxo-2H-pyran-6-carboxamide]
31 | < 0.5 | < 0.5 | COCCOc1c(-c2c(C)cccc2C#N)cc(C(=O)Nc2nnc(-n3nccc3N)s2)oc1=O (single isomer, unassigned) [Compound 24A*, (Ra)—N-(5-(5-amino-1H-pyrazol-1-yl)-1,3,4-thiadiazol-2-yl)-4-(2-cyano-6-methylphenyl)-3-(2-methoxyethoxy)-2-oxo-2H-pyran-6-carboxamide]
32 | < 0.5 | – | COCCOc1c(-c2c(C)cccc2C#N)cc(C(=O)Nc2nnc(-n3nccc3N)s2)oc1=O (single isomer, unassigned) [Compound 24B*, (Sa)-N-(5-(5-amino-1H-pyrazol-1-yl)-1,3,4-thiadiazol-2-yl)-4-(2-cyano-6-methylphenyl)-3-(2-methoxyethoxy)-2-oxo-2H-pyran-6-carboxamide]
33 | < 0.5 | – | COc1cccc(Cl)c1-c1cc(C(=O)Nc2nnc(-n3nccc3N)s2)oc(=O)c1OCCO (single isomer, unassigned) [Compound 34B*, (Ra)—N-(5-(5-amino-1H-pyrazol-1-yl)-1,3,4-thiadiazol-2-yl)-4-(2-chloro-6-methoxyphenyl)-3-(2-hydroxyethoxy)-2-oxo-2H-pyran-6-carboxamide]
34 | < 0.5 | – | COc1cccc(OC)c1-c1cc(C(=O)Nc2nnc(-n3nccc3N)s2)oc(=O)c1O[C@H]1CCOC1 [52A*, (S)-N-(5-(5-amino-1H-pyrazol-1-yl)-1,3,4-thiadiazol-2-yl)-4-(2,6-dimethoxyphenyl)-2-oxo-3-((tetrahydrofuran-3-yl)oxy)-2H-pyran-6-carboxamide]
